Results on eight compounds are retold here after patent US12661410B2, “Compounds for targeted degradation of RET” (C4 Therapeutics, Inc., priority 2020, dated 2026).

Structures are written as SMILES. Where a chain is given by its changes, count along the chain named. Read-outs that look alike come from different tables or passages of the source.

One assay addresses T1, RET(KD: 658-1114 G810R) (Homo sapiens, UniProt P07949, G810R).
T1 construct: 658-1114; expressed in transfected cells; host or cells: 293T.165 (293T cells, generated in-house)
T1 sequence (P07949 658-1114 G810R): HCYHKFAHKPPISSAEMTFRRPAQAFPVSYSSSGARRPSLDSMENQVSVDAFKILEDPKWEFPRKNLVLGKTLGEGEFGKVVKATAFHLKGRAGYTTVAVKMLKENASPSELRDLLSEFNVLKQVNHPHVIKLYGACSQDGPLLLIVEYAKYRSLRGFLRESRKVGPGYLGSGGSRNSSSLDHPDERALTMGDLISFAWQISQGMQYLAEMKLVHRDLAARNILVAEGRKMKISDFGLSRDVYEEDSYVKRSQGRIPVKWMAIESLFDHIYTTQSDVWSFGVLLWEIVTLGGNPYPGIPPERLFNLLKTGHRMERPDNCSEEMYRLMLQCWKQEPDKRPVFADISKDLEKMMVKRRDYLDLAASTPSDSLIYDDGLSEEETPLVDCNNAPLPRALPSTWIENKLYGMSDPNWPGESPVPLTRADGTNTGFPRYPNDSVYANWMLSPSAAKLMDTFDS
In words: HiBiT-Degradation, RET G810R degradation assay (Nano-Glo HiBiT Lytic), 293T.165 cells. Type of assay: cell-based. As to conditions: for Emax / DC50: 6.0 hours; for Emax: % remaining protein, read-out: 293T.165 RET(KD: 658-1114 G810R) 6.0 hours (Emax); for DC50: read-out: 293T.165 RET(KD: 658-1114 G810R) 6.0 hours (DC50). An outline of the steps: (§1)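 Cells were plated and dosed with an 11-point half-log series (highest 10 μM) in duplicate. After 6 hours they were lysed with HiBiT lytic detection reagent and luminescence measured. DC50 and percent remaining protein (Emax) came from the dose-response curves.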
Background: The HiBiT peptide binds its large partner to form an active luciferase.

The target of the next assay is T2, RET (658-1114) (Homo sapiens, UniProt P07949).
T2 construct: 658-1114; expressed in transfected cells; host or cells: 293T.144 (293T cells, generated in-house)
T2 sequence (P07949 658-1114): T1 sequence (P07949 658-1114 G810R) with R153G
As to the kind of experiment: HiBiT-Degradation, RET wild-type degradation assay (Nano-Glo HiBiT Lytic), 293T.144 cells. Type of assay: cell-based. As to conditions: for Emax / DC50: 6.0 hours; for Emax: read-out: 293T.144 RET (658-1114) 6.0 hours (Emax); for DC50: read-out: 293T.144 RET (658-1114) 6.0 hours (DC50). An outline of the steps:
as §1

The mark [1] stands for this setting: half-maximal degradation concentration.

A word on the Emax: it is the greatest response seen or fitted, relative to the assay's reference. The term DC50 denotes the concentration at which degradation of the target reaches its halfway point.

`N#Cc1cnn2cc(-c3cnn([C@H]4CC[C@@H](N5CCN(c6ccc(NC7CCC(=O)NC7=O)cc6F)CC5)CC4)c3)nc(-c3ccc(N4CC5CC(C4)N5CC4CCC(F)(F)CC4)nc3)c12` (single isomer, unassigned) [Compound 178, 4-(6-(6-((4,4-Difluorocyclohexyl)methyl)-3,6-diazabicyclo[3.1.1]heptan-3-yl)pyridin-3-yl)-6-(1-((1s, 4s)-4-(4-(4-((2,6-dioxopiperidin-3-yl)amino)-2-fluorophenyl)piperazin-1-yl)cyclohexyl)-1H-pyrazol-4-yl)pyrazolo[1,5-a]pyrazine-3-carbonitrile]: at RET(KD: 658-1114 G810R), the “293T.165 RET(KD: 658-1114 G810R) 6.0 hours (IP) [nM]” value was “++++ (<50 nM = ++++)”. The Emax on RET(KD: 658-1114 G810R) and on RET (658-1114) (% remaining protein) was less than 30% each time. The DC50 on RET(KD: 658-1114 G810R) (setting [1]) and at RET (658-1114) (setting [1]) was less than 50 nM throughout. The “293T.144 RET (658-1114) 6.0 hours (IP) [nM]” value (from here on “293T.144 RET”) at RET (658-1114) is given as “++++ (<50 nM = ++++)”.

In the case of `N#Cc1cnn2cc(-c3ccc(N4CCN(C(=O)CC5(O)CCN(c6ccc(NC7CCC(=O)NC7=O)cc6F)CC5)CC4)cc3)cc(-c3ccc(N4CCN(C(=O)Cc5ccc(F)cn5)CC4)nc3)c12` (centres unmarked) [Compound 26, 6-[4-[4-[2-[1-[4-[(2,6-Dioxo-3-piperidyl)amino]-2-fluoro-phenyl]-4-hydroxy-4-piperidyl]acetyl]piperazin-1-yl]phenyl]-4-[6-[4-[2-(5-fluoro-2-pyridyl)acetyl]piperazin-1-yl]-3-pyridyl]pyrazolo[1,5-a]pyridine-3-carbonitrile], at RET(KD: 658-1114 G810R), the Emax is less than 50%. Further, the DC50 at RET(KD: 658-1114 G810R) (setting [1]) is less than 50 nM. Also, at RET(KD: 658-1114 G810R) (HiBiT-Degradation), the “293T.165 RET(KD: 658-1114 G810R) 6.0 hours (Emax)” value is given as “+++ (<50% = +++)”, the “293T.165 RET(KD: 658-1114 G810R) 6.0 hours (IP) [nM]” value is recorded as “++++ (< 50 nM = ++++)” and the DC50 was less than 50 nM. Besides, at RET (658-1114) (HiBiT-Degradation), the “293T.144 RET” value is recorded as “++++ (< 50 nM = ++++)”, the 50% degradation concentration (DC50) was less than 50 nM and the Emax is less than 30%.

As to `N#Cc1cnn2cc(-c3cnn(C4CCN(C(=O)CC5(O)CCN(c6ccc(NC7CCC(=O)NC7=O)cc6F)CC5)CC4)c3)nc(-c3ccc(N4CCN(C(=O)C5CCC5)CC4)nc3)c12` (centres unmarked) [Compound 112, 4-[6-[4-(cyclobutanecarbonyl)piperazin-1-yl]-3-pyridyl]-6-[1-[1-[2-[1-[4-[(2,6-dioxo-3-piperidyl)amino]-2-fluoro-phenyl]-4-hydroxy-4-piperidyl]acetyl]-4-piperidyl]pyrazol-4-yl]pyrazolo[1,5-a]pyrazine-3-carbonitrile], the “293T.165 RET(KD: 658-1114 G810R) 6.0 hours (IP) [nM]” value at RET(KD: 658-1114 G810R) is reported as “++++ (<50 nM = ++++)”. Further, the results for the Emax at RET(KD: 658-1114 G810R) and at RET (658-1114) (% remaining protein) were less than 50% and less than 30%, respectively. The DC50 on RET(KD: 658-1114 G810R) (setting [1]) and at RET (658-1114) (setting [1]) was less than 50 nM each time. On RET (658-1114), the “293T.144 RET” value is “++++ (<50 nM = ++++)”.

Regarding `CCC1(C(=O)Nc2ccccc2)CCN(c2ccc(-c3nc(-c4cnn(C5CCN(C(=O)CC6(O)CCN(c7ccc(NC8CCC(=O)NC8=O)cc7F)CC6)CC5)c4)cn4ncc(C#N)c34)cn2)CC1` (centres unmarked) [Compound 99, 1-[5-[3-cyano-6-[1-[1-[2-[1-[4-[(2,6-dioxo-3-piperidyl)amino]-2-fluoro-phenyl]-4-hydroxy-4-piperidyl]acetyl]-4-piperidyl]pyrazol-4-yl]pyrazolo[1,5-a]pyrazin-4-yl]-2-pyridyl]-4-ethyl-N-phenyl-piperidine-4-carboxamide], on RET(KD: 658-1114 G810R), the “293T.165 RET(KD: 658-1114 G810R) 6.0 hours (IP) [nM]” value was “++++ (<50 nM = ++++)”. Besides, the Emax on RET(KD: 658-1114 G810R) and on RET (658-1114) (% remaining protein) was less than 30% in each case. Also, the DC50 at RET(KD: 658-1114 G810R) (setting [1]) and on RET (658-1114) (setting [1]) was less than 50 nM in each case. The “293T.144 RET” value at RET (658-1114) is listed as “++++ (<50 nM = ++++)”.

On to `CCC1(C(=O)NC2CCCC2)CCN(c2ccc(-c3nc(-c4cnn([C@H]5CC[C@H](N6CCC(c7ccc(N[C@@H]8CCC(=O)NC8=O)cc7F)CC6)CC5)c4)cn4ncc(C#N)c34)cn2)CC1` [Compound 142, 1-[5-[3-cyano-6-[1-[4-[4-[4-[[(3R)-2,6-dioxo-3-piperidyl]amino]-2-fluoro-phenyl]-1-piperidyl]cyclohexyl]pyrazol-4-yl]pyrazolo[1,5-a]pyrazin-4-yl]-2-pyridyl]-N-cyclopentyl-4-ethyl-piperidine-4-carboxamide], for which, on RET(KD: 658-1114 G810R), the “293T.165 RET(KD: 658-1114 G810R) 6.0 hours (IP) [nM]” value is on record as “++++ (<50 nM = ++++)”. Further, the Emax on RET(KD: 658-1114 G810R) and at RET (658-1114) (% remaining protein) was less than 30% each time. Also, the DC50 on RET(KD: 658-1114 G810R) (setting [1]) and on RET (658-1114) (setting [1]) was less than 50 nM each time. In addition, on RET (658-1114), the “293T.144 RET” value is “++++ (<50 nM = ++++)”.

For `CC(C)NC(=O)C1(C)CCN(c2ccc(-c3cc(-c4cnn(C5CCN(C(=O)CN6CCC(c7ccc(NC8CCC(=O)NC8=O)cc7F)CC6)CC5)c4)cn4ncc(C#N)c34)cn2)CC1` (centres unmarked) [Compound 2, 1-(5-(3-Cyano-6-(1-(1-(2-(4-(4-((2,6-dioxopiperidin-3-yl)amino)-2-fluorophenyl)piperidin-1-yl)acetyl)piperidin-4-yl)-1H-pyrazol-4-yl)pyrazolo[1,5-a]pyridin-4-yl)pyridin-2-yl)-N-isopropyl-4-methylpiperidine-4-carboxamide], on RET(KD: 658-1114 G810R), the Emax was less than 50%. In addition, the half-maximal degradation concentration (DC50) on RET(KD: 658-1114 G810R) (setting [1]) was less than 50 nM. Moreover, on RET(KD: 658-1114 G810R) (HiBiT-Degradation), the “293T.165 RET(KD: 658-1114 G810R) 6.0 hours (Emax)” value is on record as “+++ (<50% = +++)”, the “293T.165 RET(KD: 658-1114 G810R) 6.0 hours (IP) [nM]” value is “++++ (< 50 nM = ++++)” and the half-maximal degradation concentration (DC50) was less than 50 nM. At RET (658-1114) (HiBiT-Degradation), the “293T.144 RET” value was “++++ (< 50 nM = ++++)”, the DC50 is less than 50 nM and the Emax was less than 30%.

Consider `CCC1(C(=O)NC(C)C)CCN(c2ncc(-c3cc(-c4cnn(C5CCN(C(=O)CN6CCC(c7ccc(NC8CCC(=O)NC8=O)cc7F)CC6)CC5)c4)cn4ncc(C#N)c34)cn2)CC1` (centres unmarked) [Compound 59, 1-[5-[3-cyano-6-[1-[1-[2-[4-[4-[(2,6-dioxo-3-piperidyl)amino]-2-fluoro-phenyl]-1-piperidyl]acetyl]-4-piperidyl]pyrazol-4-yl]pyrazolo[1,5-a]pyridin-4-yl]pyrimidin-2-yl]-4-ethyl-N-isopropyl-piperidine-4-carboxamide], for which, on RET(KD: 658-1114 G810R), the Emax is less than 50%. In addition, at RET(KD: 658-1114 G810R) (setting [1]), the DC50 is less than 100 nM. At RET(KD: 658-1114 G810R) (HiBiT-Degradation), the “293T.165 RET(KD: 658-1114 G810R) 6.0 hours (Emax)” value was “+++ (<50% = +++)”, the “293T.165 RET(KD: 658-1114 G810R) 6.0 hours (IP) [nM]” value was “++++ (< 50 nM = ++++)” and the DC50 was less than 100 nM. Moreover, at RET (658-1114) (HiBiT-Degradation), the “293T.144 RET” value is on record as “++++ (< 50 nM = ++++)”, the DC50 is less than 50 nM and the Emax was less than 30%.

In the case of `CCC1(C(=O)NC(C)C)CCN(c2ccc(-c3nc(-c4cnn(C5CCN(C(=O)CN6C7CCC6CC(c6ccc(NC8CCC(=O)NC8=O)cc6)C7)CC5)c4)cn4ncc(C#N)c34)cn2)CC1` (centres unmarked) [Compound 9, 1-[5-[3-cyano-6-[1-[1-[2-[3-[4-[(2,6-dioxo-3-piperidyl)amino]phenyl]-8-azabicyclo[3.2.1]octan-8-yl]acetyl]-4-piperidyl]pyrazol-4-yl]pyrazolo[1,5-a]pyrazin-4-yl]-2-pyridyl]-4-ethyl-N-isopropyl-piperidine-4-carboxamide], on RET(KD: 658-1114 G810R), the maximum response (Emax) is less than 30%. Further, at RET(KD: 658-1114 G810R) (setting [1]), the 50% degradation concentration (DC50) was less than 100 nM. Moreover, on RET(KD: 658-1114 G810R) (HiBiT-Degradation), the “293T.165 RET(KD: 658-1114 G810R) 6.0 hours (Emax)” value is “++++ (< 30% = ++++)”, the “293T.165 RET(KD: 658-1114 G810R) 6.0 hours (IP) [nM]” value is reported as “++++ (< 50 nM = ++++)” and the DC50 is less than 100 nM. Further, on RET (658-1114) (HiBiT-Degradation), the “293T.144 RET” value was “++++ (< 50 nM = ++++)”, the DC50 is less than 50 nM and the Emax is less than 30%.
